{"source": "DBAASP", "assay_in_all_cases": "≥ marks a high value that may be exact or a test limit, other limits are often not marked, values filed in µg/mL are converted to µM", "key": {"[1]": {"test_system": "Staphylococcus aureus ATCC 43300"}, "[2]": {"test_system": "Escherichia coli ATCC 25922"}, "[3]": {"test_system": "Staphylococcus aureus USA 400"}, "[4]": {"test_system": "Bacillus subtilis ATCC 23857"}, "[5]": {"test_system": "Staphylococcus aureus ATCC 6538P"}, "[6]": {"test_system": "Pseudomonas aeruginosa ATCC 27853"}, "[7]": {"test_system": "Staphylococcus aureus USA 300"}, "[8]": {"test_system": "Staphylococcus epidermidis ATCC 12228"}, "[9]": {"test_system": "Staphylococcus aureus ATCC 6538"}, "[10]": {"test_system": "Pseudomonas aeruginosa ATCC 9027"}, "[11]": {"test_system": "Escherichia coli ATCC 700926"}, "Escherichia coli BL21": {"test_system": "Escherichia coli BL21"}, "[12]": {"test_system": "Escherichia coli IFO 12734"}, "[13]": {"test_system": "Bacillus subtilis IFO 3513"}, "[14]": {"test_system": "Staphylococcus aureus IFO 12732"}, "[15]": {"test_system": "Micrococcus luteus ATCC 9341"}, "[16]": {"test_system": "Enterococcus faecalis ATCC 29212"}, "[17]": {"test_system": "Acinetobacter baumannii NM124"}, "[18]": {"test_system": "Candida albicans ATCC 90028"}, "[19]": {"test_system": "Staphylococcus epidermidis RP62A"}, "[20]": {"test_system": "Acinetobacter baumannii NM75"}, "[21]": {"test_system": "Escherichia coli ATCC 25726"}, "[22]": {"test_system": "Stenotrophomonas maltophilia B32/4"}, "[23]": {"test_system": "Stenotrophomonas maltophilia B5/5"}, "[24]": {"test_system": "Staphylococcus epidermidis RP62A/1"}, "[25]": {"test_system": "Stenotrophomonas maltophilia U8908"}, "[26]": {"test_system": "Acinetobacter baumannii NM35"}, "[27]": {"test_system": "Staphylococcus aureus 145/08"}, "[28]": {"test_system": "Stenotrophomonas maltophilia B32/1"}, "[29]": {"test_system": "Staphylococcus epidermidis T37/8"}, "[30]": {"test_system": "Acinetobacter baumannii NM109"}, "[31]": {"test_system": "Klebsiella pneumoniae ATCC 700603"}, "[32]": {"test_system": "Stenotrophomonas maltophilia B6/2"}, "[33]": {"test_system": "Acinetobacter baumannii NM8"}, "[34]": {"test_system": "Staphylococcus epidermidis T6/19"}, "[35]": {"test_system": "Staphylococcus aureus ATCC 25923"}, "[36]": {"test_system": "Salmonella enterica subsp. enterica serovar Typhi"}, "Vibrio cholerae": {"test_system": "Vibrio cholerae"}, "[37]": {"test_system": "Staphylococcus epidermidis"}, "Escherichia coli": {"test_system": "Escherichia coli"}, "[38]": {"test_system": "Neisseria gonorrhoeae F-62"}, "Listeria monocytogenes": {"test_system": "Listeria monocytogenes"}, "[39]": {"test_system": "Neisseria gonorrhoeae FA-19"}, "Candida albicans": {"test_system": "Candida albicans"}, "[40]": {"test_system": "Pseudomonas aeruginosa 8600"}, "[41]": {"test_system": "Acinetobacter baumannii ATCC 19606"}, "[42]": {"test_system": "Enterococcus faecalis NCTC 12697"}, "[43]": {"test_system": "Streptococcus mutans NCTC 10449"}, "[44]": {"test_system": "Candida albicans NCTC 3179"}, "[45]": {"test_system": "Lactobacillus acidophilus NCTC 1723"}}, "note": "“And” between values parts separate entries of the source, which are not always exact repeats. Equal values may be shown once.", "data": [{"smiles": "CC[C@H](C)[C@H](NC(=O)[C@H](CCCCN)NC(=O)[C@H](CCCCN)NC(=O)[C@@H](NC(=O)[C@@H](NC(=O)[C@H](CCCCN)NC(=O)[C@H](CCCCN)NC(=O)[C@@H](NC(=O)[C@@H](NC(=O)[C@H](CCCCN)NC(=O)[C@H](CCCCN)NC(=O)[C@@H](NC(=O)[C@@H](NC(=O)CN)[C@@H](C)CC)[C@@H](C)CC)[C@@H](C)CC)[C@@H](C)CC)[C@@H](C)CC)[C@@H](C)CC)C(=O)O", "note": "[GIIKKIIKKIIKKI]", "values": [{"measurement": "MIC", "setting": "[1]", "result": 125, "unit": "µM"}, {"measurement": "MIC", "setting": "[2]", "result": 5.7, "unit": "µM"}, {"measurement": "MIC", "setting": "[3]", "result": "≥ 125", "unit": "µM"}, {"measurement": "MIC", "setting": "[4]", "result": 2.4, "unit": "µM"}, {"measurement": "MIC", "setting": "[5]", "result": 7.8, "unit": "µM"}, {"measurement": "MIC", "setting": "[6]", "result": 15.6, "unit": "µM"}, {"measurement": "MIC", "setting": "[7]", "result": "≥ 125", "unit": "µM"}, {"measurement": "MIC", "setting": "[8]", "result": 3.9, "unit": "µM"}, {"measurement": "MIC", "setting": "[9]", "result": "128 µM and 62.5 µM"}, {"measurement": "MIC", "setting": "[10]", "result": 9.3, "unit": "µM"}, {"measurement": "MIC", "setting": "[11]", "result": 15.6, "unit": "µM"}, {"measurement": "MIC", "setting": "Escherichia coli BL21", "result": 15.6, "unit": "µM"}]}, {"smiles": "CC[C@H](C)[C@H](N)C(=O)N[C@@H](CC(C)C)C(=O)N1CCC[C@H]1C(=O)N[C@@H](Cc1ccc(O)cc1)C(=O)N[C@@H](CCCCN)C(=O)N[C@@H](Cc1ccc(O)cc1)C(=O)N1CCC[C@H]1C(=O)N[C@@H](Cc1ccc(O)cc1)C(=O)N[C@@H](Cc1ccc(O)cc1)C(=O)N1CCC[C@H]1C(=O)N[C@@H](Cc1ccc(O)cc1)C(=O)N[C@@H](CCCN=C(N)N)C(=O)N[C@@H](CCCN=C(N)N)C(N)=O", "note": "[ILPYKYPYYPYRR]", "values": [{"measurement": "MIC", "setting": "[12]", "result": "≥ 55.8", "unit": "µM"}, {"measurement": "MIC", "setting": "[13]", "result": 14, "unit": "µM"}, {"measurement": "MIC", "setting": "[14]", "result": 14, "unit": "µM"}, {"measurement": "MIC", "setting": "[15]", "result": 6.3, "unit": "µM"}]}, {"smiles": "CC[C@H](C)[C@H](NC(=O)[C@H](C)NC(=O)[C@@H](NC(=O)[C@H](C)NC(=O)CNC(=O)[C@H](CCCCN)NC(=O)[C@@H](NC(=O)[C@H](C)NC(=O)CNC(=O)[C@H](CCCCN)NC(=O)[C@H](CC(C)C)NC(=O)[C@@H](NC(=O)[C@H](CCCCN)NC(=O)[C@H](CCCCN)NC(=O)[C@H](CC(C)C)NC(=O)[C@@H](NC(=O)[C@H](CC(=O)O)NC(=O)[C@H](CCCCN)NC(=O)[C@@H](NC(=O)[C@H](CCCCN)NC(=O)[C@@H]1CCCN1C(=O)[C@H](CO)NC(=O)[C@H](CC(C)C)NC(=O)[C@H](CCCCN)NC(=O)[C@@H](N)CC(C)C)[C@@H](C)O)[C@@H](C)O)C(C)C)[C@@H](C)CC)[C@@H](C)CC)C(=O)N[C@@H](C)C(=O)N[C@@H](CO)C(=O)N[C@@H](CCSC)C(=O)N[C@@H](C)C(N)=O", "note": "[LKLSPKTKDTLKKVLKGAIKGAIAIASMA]", "values": [{"measurement": "MIC", "setting": "[16]", "result": 20, "unit": "µM"}, {"measurement": "MIC", "setting": "[17]", "result": 2.5, "unit": "µM"}, {"measurement": "MIC", "setting": "[18]", "result": "≥ 80", "unit": "µM"}, {"measurement": "MIC", "setting": "[19]", "result": 1.25, "unit": "µM"}, {"measurement": "MIC", "setting": "[20]", "result": 2.5, "unit": "µM"}, {"measurement": "MIC", "setting": "[21]", "result": "10 µM and 5 µM"}, {"measurement": "MIC", "setting": "[22]", "result": 1.25, "unit": "µM"}, {"measurement": "MIC", "setting": "[23]", "result": 2.5, "unit": "µM"}, {"measurement": "MIC", "setting": "[24]", "result": 1.25, "unit": "µM"}, {"measurement": "MIC", "setting": "[6]", "result": 20, "unit": "µM"}, {"measurement": "MIC", "setting": "[25]", "result": 5, "unit": "µM"}, {"measurement": "MIC", "setting": "[26]", "result": 5, "unit": "µM"}, {"measurement": "MIC", "setting": "[27]", "result": 2.5, "unit": "µM"}, {"measurement": "MIC", "setting": "[28]", "result": 2.5, "unit": "µM"}, {"measurement": "MIC", "setting": "[29]", "result": 1.25, "unit": "µM"}, {"measurement": "MIC", "setting": "[30]", "result": 5, "unit": "µM"}, {"measurement": "MIC", "setting": "[31]", "result": 10, "unit": "µM"}, {"measurement": "MIC", "setting": "[32]", "result": 1.25, "unit": "µM"}, {"measurement": "MIC", "setting": "[33]", "result": 5, "unit": "µM"}, {"measurement": "MIC", "setting": "[34]", "result": 1.25, "unit": "µM"}, {"measurement": "MIC", "setting": "[35]", "result": 2.5, "unit": "µM"}]}, {"smiles": "CC(C)C[C@H](NC(=O)[C@H](CO)NC(=O)CNC(=O)[C@H](C)NC(=O)[C@@H](N)CC(N)=O)C(=O)N[C@@H](CC(C)C)C(=O)N[C@@H](CO)C(=O)NCC(=O)N[C@@H](Cc1c[nH]c2ccccc12)C(=O)NCC(=O)O", "note": "[NAGSLLSGWG]", "values": [{"measurement": "MIC", "setting": "[36]", "result": 0.687, "unit": "µM"}, {"measurement": "MIC", "setting": "Vibrio cholerae", "result": 3, "unit": "µM"}, {"measurement": "MIC", "setting": "[37]", "result": 0.687, "unit": "µM"}]}, {"smiles": "CC(C)C[C@H](NC(=O)[C@H](CCCNC(=N)N)NC(=O)CNC(=O)CNC(=O)[C@@H](N)CCCNC(=N)N)C(=O)N[C@H]1CSSC[C@@H](C(=O)N[C@H](C(=O)NCC(=O)N[C@@H](CCCNC(=N)N)C(N)=O)C(C)C)NC(=O)[C@H](C(C)C)NC(=O)[C@@H]2CSSC[C@H](NC(=O)[C@H](Cc3ccc(O)cc3)NC1=O)C(=O)N[C@@H](CCCNC(=N)N)C(=O)N1CCC[C@H]1C(=O)N[C@@H](CCCNC(=N)N)C(=O)N[C@@H](Cc1ccccc1)C(=O)N2", "note": "[RGGRLCYCRPRFCVCVGR]", "values": [{"measurement": "MIC", "setting": "Escherichia coli", "result": 1.38, "unit": "µM"}, {"measurement": "MIC", "setting": "[38]", "result": 0.666, "unit": "µM"}, {"measurement": "MIC", "setting": "Listeria monocytogenes", "result": 1.19, "unit": "µM"}, {"measurement": "MIC", "setting": "[39]", "result": 0.761, "unit": "µM"}, {"measurement": "MIC", "setting": "Candida albicans", "result": 7.42, "unit": "µM"}]}, {"smiles": "CSCC[C@H](NC(=O)[C@H](CC(C)C)NC(=O)CNC(=O)[C@H](Cc1ccccc1)NC(=O)[C@H](Cc1ccccc1)NC(=O)[C@H](CCC(N)=O)NC(=O)[C@H](CCC(N)=O)NC(=O)[C@@H]1CCCN1C(=O)[C@H](CCCCN)NC(=O)[C@@H]1CCCN1C(=O)[C@@H](N)CCCN=C(N)N)C(N)=O", "note": "[RPKPQQFFGLM]", "values": [{"measurement": "MIC", "setting": "[40]", "result": "≥ 94.9", "unit": "µM"}, {"measurement": "MIC", "setting": "[41]", "result": "> 94.9", "unit": "µM"}, {"measurement": "MIC", "setting": "[42]", "result": "≥ 371", "unit": "µM"}, {"measurement": "MIC", "setting": "[43]", "result": "≥ 127", "unit": "µM"}, {"measurement": "MIC", "setting": "[44]", "result": 6.01, "unit": "µM"}, {"measurement": "MIC", "setting": "[45]", "result": "≥ 54.9", "unit": "µM"}]}]}
